System: MV-4-11 cells
Assay: Gene expression microarray analysis (Affymetrix PrimeView) and GSEA
Assay type: cell-based, human
Design: RFU PODN (11730768_x_at) / Fold change /veh PODN (11730768_x_at) / RFU LINC00158 (11744669_a_at) / Fold change /veh LINC00158 (11744669_a_at) / RFU DUSP10 (11751237_a_at) / Fold change /veh DUSP10 (11751237_a_at) / RFU ID3 (11757404_x_at) / Fold change /veh ID3 (11757404_x_at) / RFU PLEKHG5 (11737974_s_at) / Fold change /veh PLEKHG5 (11737974_s_at) / RFU LRRC4B (11730491_at) / Fold change /veh LRRC4B (11730491_at) / RFU GIMAP4 (11747438_a_at) / Fold change /veh GIMAP4 (11747438_a_at) / RFU KRT8 (11758183_x_at) / Fold change /veh KRT8 (11758183_x_at) / RFU CNN1 (11734310_a_at) / Fold change /veh CNN1 (11734310_a_at) / RFU VPS37D (11726825_at) / Fold change /veh VPS37D (11726825_at) / RFU C10orf10 (11716522_x_at) / Fold change /veh C10orf10 (11716522_x_at) / RFU KIR2DL2 /// KIR2DL4 /// KIR2DL5A /// KIR2DL5B /// KIR2DS1 /// KIR2DS2 /// KIR2DS3 /// KIR2DS4 /// KIR3DL3 /// KIR3DL3 /// KIR3DS1 (11738374_at) / Fold change /veh KIR2DL2 /// KIR2DL4 /// KIR2DL5A /// KIR2DL5B /// KIR2DS1 /// KIR2DS2 /// KIR2DS3 /// KIR2DS4 /// KIR3DL3 /// KIR3DL3 /// KIR3DS1 (11738374_at) / RFU C1QL1 (11718748_at) / Fold change /veh C1QL1 (11718748_at) / RFU TMPRSS4 (11747572_a_at) / Fold change /veh TMPRSS4 (11747572_a_at) / RFU HAMP (11756126_x_at) / Fold change /veh HAMP (11756126_x_at) / RFU RNFT2 (11725882_a_at) / Fold change /veh RNFT2 (11725882_a_at) / RFU NR4A2 (11747474_a_at) / Fold change /veh NR4A2 (11747474_a_at) / RFU ABCC12 (11746883_a_at) / Fold change /veh ABCC12 (11746883_a_at) / RFU TMEM136 (11760407_x_at) / Fold change /veh TMEM136 (11760407_x_at) / RFU CLDN22 /// WWC2 (11732394_at) / Fold change /veh CLDN22 /// WWC2 (11732394_at) / RFU HLA-DPB1 (11760878_x_at) / Fold change /veh HLA-DPB1 (11760878_x_at) / RFU SPINT1 (11716480_a_at) / Fold change /veh SPINT1 (11716480_a_at) / RFU GAP43 (11754022_s_at) / Fold change /veh GAP43 (11754022_s_at) / RFU A4GNT (11735810_at) / Fold change /veh A4GNT (11735810_at) / RFU PRB3 (11715151_x_at) / Fold change /veh PRB3 (11715151_x_at) / RFU TUBB4B (11761932_at) / Fold change /veh TUBB4B (11761932_at) / RFU CAPN14 (11732068_a_at) / Fold change /veh CAPN14 (11732068_a_at) / RFU TMCC2 (11721928_a_at) / Fold change /veh TMCC2 (11721928_a_at) / RFU IRGQ (11745062_a_at) / Fold change /veh IRGQ (11745062_a_at) / RFU FAM174B (11720279_a_at) / Fold change /veh FAM174B (11720279_a_at) / RFU TMPRSS4 (11748680_a_at) / Fold change /veh TMPRSS4 (11748680_a_at) / RFU FAM212B (11763350_a_at) / Fold change /veh FAM212B (11763350_a_at) / RFU PLEKHG5 (11743358_a_at) / Fold change /veh PLEKHG5 (11743358_a_at) / RFU ZSCAN30 (11745921_a_at) / Fold change /veh ZSCAN30 (11745921_a_at) / RFU CMKLR1 (11741424_a_at) / Fold change /veh CMKLR1 (11741424_a_at) / RFU LOC101060620 /// MAPK8IP1 (11723275_at) / Fold change /veh LOC101060620 /// MAPK8IP1 (11723275_at) / RFU SPTSSB (11747773_x_at) / Fold change /veh SPTSSB (11747773_x_at) / RFU PRSS12 (11739890_at) / Fold change /veh PRSS12 (11739890_at) / RFU BIN1 (11741810_x_at) / Fold change /veh BIN1 (11741810_x_at) / RFU WNT11 (11732464_a_at) / Fold change /veh WNT11 (11732464_a_at) / RFU C10orf10 (11716521_a_at) / Fold change /veh C10orf10 (11716521_a_at) / RFU C5orf56 (11738089_at) / Fold change /veh C5orf56 (11738089_at) / RFU CYB561 (11721691_x_at) / Fold change /veh CYB561 (11721691_x_at) / RFU ANKRD19P (11752326_a_at) / Fold change /veh ANKRD19P (11752326_a_at) / RFU OR2T12 /// OR2T33 /// OR2T8 (11738714_s_at) / Fold change /veh OR2T12 /// OR2T33 /// OR2T8 (11738714_s_at) / RFU VCAN (11748164_a_at) / Fold change /veh VCAN (11748164_a_at) / RFU JSRP1 (11732532_at) / Fold change /veh JSRP1 (11732532_at) / RFU KRTAP10-11 (11738290_x_at) / Fold change /veh KRTAP10-11 (11738290_x_at) / RFU MYO3A (11730013_a_at) / Fold change /veh MYO3A (11730013_a_at) / RFU EBF3 (11725865_a_at) / Fold change /veh EBF3 (11725865_a_at) / RFU CAMK2N1 (11719241_x_at) / Fold change /veh CAMK2N1 (11719241_x_at) / RFU C5orf56 (11738088_a_at) / Fold change /veh C5orf56 (11738088_a_at) / RFU OLFML3 (11715873_a_at) / Fold change /veh OLFML3 (11715873_a_at) / RFU LOC100653217 /// NTM (11731650_a_at) / Fold change /veh LOC100653217 /// NTM (11731650_a_at) / RFU MAPK11 (11762145_a_at) / Fold change /veh MAPK11 (11762145_a_at) / RFU FIZ1 (11724087_x_at) / Fold change /veh FIZ1 (11724087_x_at) / RFU OASL (11726364_x_at) / Fold change /veh OASL (11726364_x_at) / RFU SOX15 (11748057_x_at) / Fold change /veh SOX15 (11748057_x_at) / RFU CD79A (11719716_a_at) / Fold change /veh CD79A (11719716_a_at) / RFU HIST1H1D (11736915_at) / Fold change /veh HIST1H1D (11736915_at) / RFU CASKIN2 (11723855_a_at) / Fold change /veh CASKIN2 (11723855_a_at) / RFU LOC730098 (11760151_x_at) / Fold change /veh LOC730098 (11760151_x_at) / RFU OR4N2 (11742367_at) / Fold change /veh OR4N2 (11742367_at) / RFU PRRT2 (11749266_a_at) / Fold change /veh PRRT2 (11749266_a_at) / RFU SNX32 (11753110_a_at) / Fold change /veh SNX32 (11753110_a_at) / RFU CDHR5 (11726645_a_at) / Fold change /veh CDHR5 (11726645_a_at) / RFU RCAN1 (11760418_a_at) / Fold change /veh RCAN1 (11760418_a_at) / RFU FAM167A (11723789_a_at) / Fold change /veh FAM167A (11723789_a_at) / RFU FAM26E (11764081_at) / Fold change /veh FAM26E (11764081_at) / RFU ISYNA1 (11749810_s_at) / Fold change /veh ISYNA1 (11749810_s_at) / RFU ACY1 (11761880_at) / Fold change /veh ACY1 (11761880_at) / RFU 11764098_at / Fold change /veh 11764098_at / RFU SAMD14 (11745864_x_at) / Fold change /veh SAMD14 (11745864_x_at) / RFU NPB (11741838_a_at) / Fold change /veh NPB (11741838_a_at) / RFU TMPRSS6 (11731388_a_at) / Fold change /veh TMPRSS6 (11731388_a_at) / RFU KRTAP10-2 (11738614_at) / Fold change /veh KRTAP10-2 (11738614_at) / RFU ARHGAP8 /// PRR5-ARHGAP8 (11727945_x_at) / Fold change /veh ARHGAP8 /// PRR5-ARHGAP8 (11727945_x_at) / RFU KRTAP5-7 /// NADSYN1 (11734609_at) / Fold change /veh KRTAP5-7 /// NADSYN1 (11734609_at) / RFU RASL12 (11751679_a_at) / Fold change /veh RASL12 (11751679_a_at) / RFU CDKN2B (11736163_a_at) / Fold change /veh CDKN2B (11736163_a_at) / RFU PRF1 (11729649_at) / Fold change /veh PRF1 (11729649_at) / RFU, ZNF638 /// ZNF638-IT1 / Fold change vs veh, ZNF638 /// ZNF638-IT1 / RFU, PANK3 / Fold change vs veh, PANK3 / RFU, SH3YL1 / Fold change vs veh, SH3YL1 / RFU, ZEB2 / Fold change vs veh, ZEB2 / RFU, NRIP1 / Fold change vs veh, NRIP1 / RFU, PTTG1IP / Fold change vs veh, PTTG1IP / RFU, CAPN2 / Fold change vs veh, CAPN2 / RFU, MED14 / Fold change vs veh, MED14 / RFU, SNORA58 / Fold change vs veh, SNORA58 / RFU, C1orf63 / Fold change vs veh, C1orf63 / RFU, LRRFIP1 / Fold change vs veh, LRRFIP1 / RFU, NDUFAF7 / Fold change vs veh, NDUFAF7 / RFU, SLC12A2 / Fold change vs veh, SLC12A2 / RFU, IBTK / Fold change vs veh, IBTK / RFU, ESF1 / Fold change vs veh, ESF1 / Fold change vs veh, TMEM50B / RFU, TAOK1 / Fold change vs veh, TAOK1 / RFU, ACBD3 / Fold change vs veh, ACBD3 / RFU, TMA16 / Fold change vs veh, TMA16 / RFU, RWDD3 / Fold change vs veh, RWDD3 / RFU, BCAT1 / Fold change vs veh, BCAT1 / RFU, EDEM3 / Fold change vs veh, EDEM3 / RFU, TMEM33 / Fold change vs veh, TMEM33 / RFU, WDR75 / Fold change vs veh, WDR75 / RFU, AHCTF1 / Fold change vs veh, AHCTF1 / RFU, TFRC / Fold change vs veh, TFRC / RFU, ZDHHC17 / Fold change vs veh, ZDHHC17 / RFU, NOM1 / Fold change vs veh, NOM1 / RFU, ARL8B / Fold change vs veh, ARL8B / RFU, ZBTB11 / Fold change vs veh, ZBTB11 / RFU, TAMM41 / Fold change vs veh, TAMM41 / RFU, KIAA1704 /// LOC100996395 / Fold change vs veh, KIAA1704 /// LOC100996395 / RFU, ING1 / Fold change vs veh, ING1 / RFU, TRMT61B / Fold change vs veh, TRMT61B / RFU, FUBP3 / Fold change vs veh, FUBP3 / RFU, TP53 / Fold change vs veh, TP53 / RFU, TNKS2 / Fold change vs veh, TNKS2 / RFU, ZFP14 / Fold change vs veh, ZFP14 / RFU, ACTR2 / Fold change vs veh, ACTR2 / RFU, PPP3R1 / Fold change vs veh, PPP3R1 / RFU, PIK3R1 / Fold change vs veh, PIK3R1 / RFU, HNRNPA1 / Fold change vs veh, HNRNPA1 / RFU, RNF170 / Fold change vs veh, RNF170 / RFU, ZNF28 / Fold change vs veh, ZNF28 / RFU, RNGTT / Fold change vs veh, RNGTT / RFU, OGT / Fold change vs veh, OGT / RFU, BRD1 / Fold change vs veh, BRD1 / RFU, MARS / Fold change vs veh, MARS / RFU, ZNF655 / Fold change vs veh, ZNF655 / RFU, FAHD1 / Fold change vs veh, FAHD1 / RFU, BDP1 / Fold change vs veh, BDP1 / RFU, LRRCC1 / Fold change vs veh, LRRCC1 / RFU, ARID1A / Fold change vs veh, ARID1A / RFU, ZNF146 / Fold change vs veh, ZNF146 / RFU, ZNF330 / Fold change vs veh, ZNF330 / RFU, GPN3 / Fold change vs veh, GPN3 / RFU, C9orf123 / Fold change vs veh, C9orf123 / RFU, N4BP2L2 / Fold change vs veh, N4BP2L2 / RFU, ARFIP1 / Fold change vs veh, ARFIP1 / RFU, FAM179B / Fold change vs veh, FAM179B / RFU, BCL10 / Fold change vs veh, BCL10 / RFU, UHRF1BP1L / Fold change vs veh, UHRF1BP1L / RFU, BET1 / Fold change vs veh, BET1 / RFU, CNOT2 / Fold change vs veh, CNOT2 / RFU, ZNF268 / Fold change vs veh, ZNF268 / Fold change vs veh, ZNF507 / RFU, DGCR2 / Fold change vs veh, DGCR2 / RFU, WDSUB1 / Fold change vs veh, WDSUB1 / Fold change vs veh, HSP90B1 /// MIR3652 / RFU, ADSS / Fold change vs veh, ADSS / RFU, GK / Fold change vs veh, GK / RFU, ZNF148 / Fold change vs veh, ZNF148 / RFU, TAF9 / Fold change vs veh, TAF9 / RFU, SLC1A5 / Fold change vs veh, SLC1A5 / RFU, SLMO2 / Fold change vs veh, SLMO2 / RFU, ABCC4 / Fold change vs veh, ABCC4 / RFU, LOC101060439 /// RAP1B / Fold change vs veh, LOC101060439 /// RAP1B / RFU, RFX7 / Fold change vs veh, RFX7 / RFU, GTPBP10 / Fold change vs veh, GTPBP10 / RFU, CNEP1R1 / Fold change vs veh, CNEP1R1 / RFU, BIVM-ERCC5 /// ERCC5 / Fold change vs veh, BIVM-ERCC5 /// ERCC5 / RFU, ILF3 / Fold change vs veh, ILF3 / RFU 11762660_at / Fold change /veh 11762660_at / RFU VCAN (11757783_s_at) / Fold change /veh VCAN (11757783_s_at) / RFU DDX43 (11728927_at) / Fold change /veh DDX43 (11728927_at) / RFU KRT8 (11758188_x_at) / Fold change /veh KRT8 (11758188_x_at) / RFU NKD1 (11759106_at) / Fold change /veh NKD1 (11759106_at) / RFU SRD5A1 (11742802_a_at) / Fold change /veh SRD5A1 (11742802_a_at) / RFU TPSAB1 /// TPSB2 (11721975_s_at) / Fold change /veh TPSAB1 /// TPSB2 (11721975_s_at) / RFU GSTM3 (11746129_a_at) / Fold change /veh GSTM3 (11746129_a_at) / RFU IL23R (11737362_x_at) / Fold change /veh IL23R (11737362_x_at) / RFU TMEM51 (11727254_a_at) / Fold change /veh TMEM51 (11727254_a_at) / RFU PIWIL2 (11732686_x_at) / Fold change /veh PIWIL2 (11732686_x_at) / RFU ORM1 (11744905_x_at) / Fold change /veh ORM1 (11744905_x_at) / RFU CCDC152 (11743942_at) / Fold change /veh CCDC152 (11743942_at) / RFU ECM1 (11717891_a_at) / Fold change /veh ECM1 (11717891_a_at) / RFU IL23R (11748794_a_at) / Fold change /veh IL23R (11748794_a_at) / RFU TNFAIP8L3 (11732012_x_at) / Fold change /veh TNFAIP8L3 (11732012_x_at) / RFU MBOAT4 (11741988_at) / Fold change /veh MBOAT4 (11741988_at) / RFU 11764193_at / Fold change /veh 11764193_at / RFU TMEM53 (11763286_at) / Fold change /veh TMEM53 (11763286_at) / RFU MAGEB2 (11727129_at) / Fold change /veh MAGEB2 (11727129_at) / RFU TMEM200A (11744735_a_at) / Fold change /veh TMEM200A (11744735_a_at) / RFU CCDC152 (11751479_a_at) / Fold change /veh CCDC152 (11751479_a_at) / RFU FAM211A (11726209_a_at) / Fold change /veh FAM211A (11726209_a_at) / RFU RGS16 (11746705_a_at) / Fold change /veh RGS16 (11746705_a_at) / RFU VCAN (11755009_s_at) / Fold change /veh VCAN (11755009_s_at) / RFU RHOB (11743442_s_at) / Fold change /veh RHOB (11743442_s_at) / RFU RGS16 (11720943_a_at) / Fold change /veh RGS16 (11720943_a_at) / RFU RGS16 (11720944_at) / Fold change /veh RGS16 (11720944_at) / RFU, VPS4B / Fold change vs veh, VPS4B / RFU, CREB1 / Fold change vs veh, CREB1 / RFU, DNAJC13 / Fold change vs veh, DNAJC13 / RFU, GNAQ / Fold change vs veh, GNAQ / RFU, CDK5R1 / Fold change vs veh, CDK5R1 / RFU, ZRANB3 / Fold change vs veh, ZRANB3 / RFU, CUL4A / Fold change vs veh, CUL4A / RFU, CCNY / Fold change vs veh, CCNY / RFU, UFL1 / Fold change vs veh, UFL1 / RFU, COG3 / Fold change vs veh, COG3 / RFU, DIAPH2 / Fold change vs veh, DIAPH2 / RFU, SKA2 / Fold change vs veh, SKA2 / RFU, AFF3 / Fold change vs veh, AFF3 / RFU, LMF1 / Fold change vs veh, LMF1 / RFU, IPO11 / Fold change vs veh, IPO11 / RFU, DFFB / Fold change vs veh, DFFB / RFU, FOXP1 / Fold change vs veh, FOXP1 / RFU, CARD8 / Fold change vs veh, CARD8 / RFU, STRN3 / Fold change vs veh, STRN3 / RFU, ADK / Fold change vs veh, ADK / RFU, RASSF2 / Fold change vs veh, RASSF2 / RFU, WIPF1 / Fold change vs veh, WIPF1 / RFU, LARP1B / Fold change vs veh, LARP1B / RFU, RASA1 / Fold change vs veh, RASA1 / RFU, RB1 / Fold change vs veh, RB1 / RFU, PPFIA1 / Fold change vs veh, PPFIA1 / RFU, MAT2A / Fold change vs veh, MAT2A / RFU, CCT5 / Fold change vs veh, CCT5 / RFU, WDR92 / Fold change vs veh, WDR92 / RFU, CUX1 / Fold change vs veh, CUX1 / RFU, TTC7A / Fold change vs veh, TTC7A / RFU, TMEM135 / Fold change vs veh, TMEM135 / RFU, DEPTOR / Fold change vs veh, DEPTOR / RFU, CPM / Fold change vs veh, CPM / RFU, DNAJB6 / Fold change vs veh, DNAJB6 / RFU, CACNA2D3 / Fold change vs veh, CACNA2D3 / RFU, DTX4 / Fold change vs veh, DTX4 / RFU, TFCP2 / Fold change vs veh, TFCP2 / RFU, GMCL1 /// GMCL1P1 / Fold change vs veh, GMCL1 /// GMCL1P1 / RFU, AEBP2 / Fold change vs veh, AEBP2 / RFU, SNHG1 /// SNORD22 /// SNORD25 /// SNORD26 /// SNORD27 /// SNORD28 /// SNORD29 /// SNORD31 / Fold change vs veh, SNHG1 /// SNORD22 /// SNORD25 /// SNORD26 /// SNORD27 /// SNORD28 /// SNORD29 /// SNORD31 / Fold change (Aza/veh), C12orf56 (ProbeSet 11735607_a_at) / Fold change (ACY-1035/veh), C12orf56 (ProbeSet 11735607_a_at) / Fold change (Aza/veh), FGFR1OP (ProbeSet 11751329_s_at) / Fold change (ACY-1035/veh), FGFR1OP (ProbeSet 11751329_s_at) / Fold change (Aza/veh), VPS36 (ProbeSet 11739960_a_at) / Fold change (ACY-1035/veh), VPS36 (ProbeSet 11739960_a_at) / RFU SYPL1 (11715823_x_at) / Fold change /veh SYPL1 (11715823_x_at) / RFU IGFBP7 (11715501_s_at) / Fold change /veh IGFBP7 (11715501_s_at) / RFU REEP3 (11722064_at) / Fold change /veh REEP3 (11722064_at) / RFU IGLL1 (11728026_x_at) / Fold change /veh IGLL1 (11728026_x_at): dose or concentration left out as unconfirmed
Details: MV-4-11 cells, 48 hours

## Nc1ncn([C@@H]2O[C@H](CO)[C@@H](O)[C@H]2O)c(=O)n1 [azacitidine]
  Fold change /veh EBF3 (11725865_a_at): 1.12

From article PMC5218480 (PLoS ONE, 2017)
